These results are taken from publication PMC10606064, “2-Aminothiazole-Flavonoid Hybrid Derivatives Binding to Tau Protein and Responsible for Antitumor Activity in Glioblastoma” (International Journal of Molecular Sciences, 2023).

The target in assay [1] is T1, full-length human Tau (hTau40) (Homo sapiens, UniProt P10636).
T1 construct: The full-length human Tau (hTau40) was expressed in a transformed E. coli BL21 (DE3) strain; made in house; host or cells: E. coli BL21 (DE3)
The experiment in a line: Tau oligomerization inhibition assay (heparin-induced, thioflavin S fluorescence). The format is biochemical. Particulars: 2 µM Tau, heparin-induced, ThS; buffer A pH 6.9; 25 °C per table footnote (37 °C in method); mean ± SD; read-out: Inhibition of Aggregation IC50. Here is the method: Tau oligomerization inhibition assay was performed at 37 °C in 96-well plates by monitoring thioflavin-S fluorescence at 520 nm after excitation at 440 nm using a microplate reader (POLARstar Omega system, BMG Labtech, Paris, France). The Tau oligomerization process was induced by heparin. […] The plates were shaken at 200 rpm for 10 s before each measurement. The real value of fluorescence at the plateau was determined using SciDAVis v1.23 software. Data were fitted to the SciDAVis built-in ExpGrowth equation by means of nonlinear least-squares regression analysis. Y = Y0 + A × exp(x/t)(1)
The unscaled Levenberg–Marquardt algorithm was used, and initial values were given to Y0, A, and t. The final Y0 value of the model corresponds to the plateau value. The plateau values were then used to calculate the Tau oligomerization inhibition percentage. The IC50 for each compound was calculated from the scatter plot of Tau oligomerization inhibition (in percentage) as a function of log10 of compound concentration. The IC50 value (in µM) thus corresponds to ten raised to the power of […].

Assay [2] has as its system U87 glioblastoma cells. The assay is described as follows: MTT cell viability assay, U87. The format is cell-based, human. The settings on record: for IC50: Homo sapiens, U87, 72 h, MTT, mean ± SEM, read-out: IC50 (metabolic activity). Here is the method:
Cells harvested from sub-confluent monolayers were seeded at 15,000 cells per mL in a 96-well microtiter plate (Cambridge Technology, Labège, France) and cultured for 24 h under standard conditions. Standard medium was then replaced by fresh medium containing no drugs or compounds at different concentrations. The surviving cells were quantified after 72 h by the MTT assay, according to the manufacturer’s instructions. Briefly, 20 µL of 3-(4,5-diMethylThiazol-2-yl)-2,5diphenyl Tetrazolium bromide (MTT) solution at 5 mg.mL^−1 was added to cells for 3 h at 37 °C. The supernatant was discarded and replaced by 100 µL of dimethyl sulfoxide to dissolve formazan crystals. The absorbance was then read at 600 nm by spectrophotometry. For all concentrations of a given compound, cell viability was expressed as the percentage of the ratio between the mean absorbance of treated cells and the mean absorbance of untreated cells. Three independent experiments were performed, and the data were expressed as percentage of survival (using the untreated cells as 100%) and subjected to statistical analysis (n = 3). The IC50 was calculated using the Chou and Talalay method.
(Formazan colour is commonly taken as a measure of viable cells.)

The test system of assay [3] is U87 shTau cells. The experiment in a line: Mitochondria network analysis (citrate synthase immunofluorescence), U87 shTau. The class given is cell-based, human. Particulars: 5 µM. Here is the method:
For indirect immunofluorescence of mitochondria, 10^4 cells were plated on cover glass and incubated for 24 h with compounds. Cells were then fixed in 4% formaldehyde (in PBS pH 7.4) for 20 min at RT, permeabilized with PBS-Triton X-100 0.5% for 10 min at RT. Immunostaining was carried out overnight at 4 °C with a primary anti-citrate synthase antibody (dilution 1:400 in PBS-BSA 3%; SC390693; SantaCruz Biotechnologies, Heidelberg, Germany). […] Each image was recorded with the CLSM’s spectral mode selecting specific domains of the emission spectrum. The Alexafluor488 and FITC fluorophores were excited at 488 nm with an argon laser, and fluorescence emission was collected between 496 nm and 535 nm. The TRITC fluorophore was excited at 543 nm with a helium–neon laser, and fluorescence was collected between 560 and 620 nm. […]
The analyses of mitochondria and microtubule networks were performed using, respectively, the ‘Mitochondria analyzer’ plugin for Fiji v1.54f software and the method described in our earlier work. Briefly, a series of images were transferred to the software and corrected for background fluorescence intensity contribution. Next, the surface of 50 single cells was measured by considering the cell shape as the boundary of labelling of actin or α-tubulin cytoskeletons (respectively for measurement on mitochondria or microtubules). […]

In assay [4] the target is T2, Tau-induced microtubule assembly (tubulin) (Homo sapiens, UniProt P10636).
T2 construct: The full-length human Tau (hTau40) was expressed in a transformed E. coli BL21 (DE3) strain; made in house; host or cells: Tau: E. coli BL21 (DE3); tubulin: purified from lamb brain tissue
T2 sequence (P10636 2-441 isoform P10636-8): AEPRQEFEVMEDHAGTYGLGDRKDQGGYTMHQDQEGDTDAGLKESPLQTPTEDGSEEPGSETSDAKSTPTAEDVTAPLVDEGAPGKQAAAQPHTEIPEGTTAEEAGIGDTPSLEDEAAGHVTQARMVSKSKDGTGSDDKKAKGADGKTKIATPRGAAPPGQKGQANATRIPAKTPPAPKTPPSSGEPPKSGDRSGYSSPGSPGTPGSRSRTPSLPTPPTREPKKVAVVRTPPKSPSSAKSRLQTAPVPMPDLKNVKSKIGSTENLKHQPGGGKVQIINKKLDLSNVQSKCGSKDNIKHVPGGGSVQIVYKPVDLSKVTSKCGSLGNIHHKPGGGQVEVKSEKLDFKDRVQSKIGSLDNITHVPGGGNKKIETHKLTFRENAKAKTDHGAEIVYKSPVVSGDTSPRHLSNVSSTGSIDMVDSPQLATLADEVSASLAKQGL
The assay is described as follows: Turbidimetry of in vitro Tau-induced microtubule assembly. The class given is biochemical, lamb. The settings on record: 10 µM tubulin, 5 µM Tau, 2.5–50 µM compound, 37 °C. Here is the method: The polymerization of tubulin was monitored by measuring the apparent absorbance at 350 nm using a Beckman DU 7400 spectrophotometer at 37 °C. Tubulin at a final concentration of 10 µM was mixed with compounds at the indicated concentration and immediately placed into the spectrometer chamber. When the signal was stable, Tau at a final concentration of 5 µM was added to induce microtubule formation. Measurements were continued until turbidity values reached a plateau.

T1 sequence (P10636 1-441 isoform P10636-8): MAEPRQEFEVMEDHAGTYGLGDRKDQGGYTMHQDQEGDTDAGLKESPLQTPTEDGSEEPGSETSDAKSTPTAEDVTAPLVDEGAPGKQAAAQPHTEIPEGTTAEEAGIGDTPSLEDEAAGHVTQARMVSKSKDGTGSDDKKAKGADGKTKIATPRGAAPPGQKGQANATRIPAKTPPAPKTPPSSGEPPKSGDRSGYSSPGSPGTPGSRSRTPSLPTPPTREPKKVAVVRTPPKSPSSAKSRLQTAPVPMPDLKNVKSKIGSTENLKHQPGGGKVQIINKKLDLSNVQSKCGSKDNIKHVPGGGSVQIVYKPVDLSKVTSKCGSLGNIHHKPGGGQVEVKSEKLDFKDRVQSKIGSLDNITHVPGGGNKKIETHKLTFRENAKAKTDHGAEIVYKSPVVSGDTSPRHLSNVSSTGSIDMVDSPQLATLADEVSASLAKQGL

As for `Nc1nc2ccc3oc(C(=O)O)cc(=O)c3c2s1` [Compound 5], the IC50 in assay [1] and in assay [2] was over 100 µM each time. Also, the “impact on the mitochondria networks” value in assay [3] is on record as “none of the compounds had an impact”. For the same compound, the “effect on turbidity time course of Tau-induced microtubule assembly” value in assay [4] is “no effect on the turbidity time course”.

Regarding `Nc1nc2ccc3oc(-c4cccc(Oc5ccccc5)c4)cc(=O)c3c2s1` [Compound 2, 2-amino-7-(3-phenoxyphenyl)-9H-chromeno [6,5-d]thiazol-9-one], the IC50 – broadly, the concentration that gives 50% inhibition – stood at 31.7 ± 7.3 µM in assay [1] and 1.9 ± 0.7 µM in assay [2]. In addition, the “IC50 value fold lower than 1” value in assay [2] (U87 cell line) is “up to 10 fold”. Besides, in assay [3], the “impact on the mitochondria networks” value is listed as “none of the compounds had an impact”. Moreover, the “effect on turbidity time course of Tau-induced microtubule assembly” value in assay [4] was “no effect on the turbidity time course”.
